From publication PMC5945843, “Direct neurotransmitter activation of voltage-gated potassium channels” (Nature Communications, 2018)
Where “and” joins values, the source holds several entries; their conditions need not be identical. Identical values can stand only once. Entries after “also recorded” stand apart in the source; their conditions may differ. Like-named read-outs stand apart in the source and are kept apart here.

Legend:
[1] = target: heteromeric KCNQ2/3 channels (Homo sapiens, UniProt O43525+O43526); assay: TEVC in Xenopus oocytes; format: cell-based; conditions: for EC50: at −60 mV; for effect of compound alone on KCNQ2/3 current: 100 µM
Source text: cRNA transcripts encoding human KCNQ1, KCNQ2, KCNQ3, KCNQ4, KCNQ5, KCNA1, or KCNE1 were generated by in vitro transcription using the T7 polymerase mMessage mMachine kit (Thermo Fisher Scientific), after vector linearization, from complementary DNA (cDNA) sub-cloned into plasmids incorporating Xenopus laevis β-globin 5′ and 3′ untranslated regions flanking the coding region to enhance translation and cRNA stability. cRNA was quantified by spectrophotometry. […] Defolliculated stage V and VI Xenopus laevis oocytes (Ecocyte Bioscience, Austin, TX) were injected with Kv channel α subunit cRNAs (5–10 ng).
Oocytes were placed in a small-volume oocyte bath (Warner) and viewed with a dissection microscope. Chemicals were sourced from Sigma. Bath solution was (in mM): 96 NaCl, 4 KCl, 1 MgCl2, 1 CaCl2, 10 HEPES (pH 7.6). […] Valeric acid was stored as a 5 mM stock in Ringer’s solution at 4 °C and diluted to working concentrations each experimental day. β-hydroxybutyric acid was stored at 4 °C as a 480 mM stock in 100% ethanol and diluted to working concentrations each experimental day. All compounds were introduced to the recording bath via gravity perfusion at a constant flow of 1 ml per min for 3 min prior to recording. Pipettes were of 1–2 MΩ resistance when filled with 3 M KCl. Currents were recorded in response to pulses between −80 mV and +40 mV at 20 mV intervals, or a single pulse to +40 mV, from a holding potential of −80 mV, to yield current-voltage relationships, current magnitude, and for quantifying activation rate. Deactivation was recorded at −80 mV after a single activating pulse to +40 mV, from a holding potential of −80 mV. […] TEVC data analysis was performed with Clampfit (Molecular Devices) and Graphpad Prism software (GraphPad, San Diego, CA, USA); values are stated as mean ± SEM. Normalized tail currents were plotted versus prepulse voltage and fitted with a single Boltzmann function:1 g=(A1-A2)/1+expV1/2-V∕VS+A2, where g is the normalized tail conductance, A1 is the initial value at −∞, A2 is the final value at +∞, V1/2 is the half-maximal voltage of activation, and VS the slope factor. Activation and deactivation kinetics were fitted with single exponential functions.

[2] = system: canonical GABAA receptors; parameters: method as in PMID 17717222; conditions: up to 5 mM BHB; cited from earlier work
[3] = system: KCNQ3*; parameters: method as in PMID 26333338; conditions: read-out: EC50 (sensitivity previously reported); cited from earlier work
[4] = system: native M-current in mouse DRG neurons; assay: Perforated patch-clamp of dorsal root ganglion neurons; format: cell-based; conditions: XE991 10 µM in combination with GABA 100 µM
Protocol: Adult male mice were purchased from Jackson Labs and then housed and used according to a protocol approved by the Institutional Animal Care and Use Committee of University of California, Irvine, and consistent with recommendations in the NIH Guide for the Care and Use of Laboratory Animals (8th edition, 2011). […]. DRG neurons were then cultured on poly-L-lysine and laminin-coated plastic coverslips in RPMI 1640 with 10% horse serum and 1% penicillin/streptomycin at 37 °C for 1–4 days before electrophysiological recordings were performed using perforated patch clamp. Amphotericin B (VWR, Radnor, PA) was dissolved in DMSO at 5 mg/ml (stock solution), then diluted to 150–200 µg/ml in intracellular solution and sonicated with a probe sonicator on ice for 5 s, kept at room temperature in the dark, and replaced every hour with a fresh solution from the stock. The working amphotericin solution was backfilled into borosilicate glass electrodes (3–5 MΩ) previously tip-filled to ~0.5 mm with intracellular solution lacking amphotericin B, immediately prior to sealing onto individual neurons. After whole-cell configuration was achieved and capacitance stabilized, whole-cell recordings were performed essentially as described in the prior paragraph, with the following differences: neurons were held at −20 mV to inactivate other channels before the test pulses; offline leak subtraction was performed.

[5] = system: native M-current in PC12 cells; assay: Whole-cell patch clamp of NGF-differentiated PC12 cells; format: cell-based, rat
Protocol: CHO cells (ATCC) were seeded on poly-L-lysine-treated glass coverslips in 24-well plates and transfected the next day using 0.5 µg each of mouse KCNQ2 and KCNQ3 cDNA in a CMV vector per well in normal media (DMEM with 10% FBS and 1% penicillin/streptomycin). The transfection reagent used was TransIT-LT1 (Mirus Bio LLC, Madison, WI, USA) and cells were patched 48–72 h post transfection. […] Media was replenished every 3 days and cultures were split once a week. […] Cell culture plastic ware and reagents were purchased from VWR and Fisher Scientific unless otherwise stated.
For both CHO cells and PC12 cells, currents were recorded in whole-cell mode at room temperature (22–25 °C) with 3–6 MΩ borosilicate glass electrodes backfilled with solution containing (in mM): 90 K acetate, 20 KCl, 40 HEPES, 3 MgCl2, 1 CaCl2, 3 EGTA-KOH, 2 MgATP; pH 7.2.
The pClamp8 (Molecular Devices) software package was used for data acquisition and Clampfit was used for analysis, along with Graphpad Prism 7.0 (Graphpad).

[6] = target: KCNQ5 (Homo sapiens, UniProt Q9NR82); assay: 3H-GABA radioligand binding in Xenopus oocytes; conditions: extracellularly applied, 100 nM
[7] = target: KCNQ1 (Homo sapiens, UniProt P51787); assay: 3H-GABA radioligand binding in Xenopus oocytes; conditions: extracellularly applied, 100 nM
[8] = target: KCNQ4 (Homo sapiens, UniProt P56696); assay: 3H-GABA radioligand binding in Xenopus oocytes; conditions: extracellularly applied, 100 nM
[9] = system: GABA receptors; parameters: method as in PMID 25779225; conditions: cited from earlier work
[10] = 100 µM compound with 10 µM GABA
[11] = 10 µM XE991 + 100 µM picrotoxin + 10 µM CGP55845, recorded after the GABA condition
[12] = Ctrl with 2 µg/ml Pertussis toxin, no GABA

heteromeric KCNQ2/3 channels, sequence (O43526 whole entry): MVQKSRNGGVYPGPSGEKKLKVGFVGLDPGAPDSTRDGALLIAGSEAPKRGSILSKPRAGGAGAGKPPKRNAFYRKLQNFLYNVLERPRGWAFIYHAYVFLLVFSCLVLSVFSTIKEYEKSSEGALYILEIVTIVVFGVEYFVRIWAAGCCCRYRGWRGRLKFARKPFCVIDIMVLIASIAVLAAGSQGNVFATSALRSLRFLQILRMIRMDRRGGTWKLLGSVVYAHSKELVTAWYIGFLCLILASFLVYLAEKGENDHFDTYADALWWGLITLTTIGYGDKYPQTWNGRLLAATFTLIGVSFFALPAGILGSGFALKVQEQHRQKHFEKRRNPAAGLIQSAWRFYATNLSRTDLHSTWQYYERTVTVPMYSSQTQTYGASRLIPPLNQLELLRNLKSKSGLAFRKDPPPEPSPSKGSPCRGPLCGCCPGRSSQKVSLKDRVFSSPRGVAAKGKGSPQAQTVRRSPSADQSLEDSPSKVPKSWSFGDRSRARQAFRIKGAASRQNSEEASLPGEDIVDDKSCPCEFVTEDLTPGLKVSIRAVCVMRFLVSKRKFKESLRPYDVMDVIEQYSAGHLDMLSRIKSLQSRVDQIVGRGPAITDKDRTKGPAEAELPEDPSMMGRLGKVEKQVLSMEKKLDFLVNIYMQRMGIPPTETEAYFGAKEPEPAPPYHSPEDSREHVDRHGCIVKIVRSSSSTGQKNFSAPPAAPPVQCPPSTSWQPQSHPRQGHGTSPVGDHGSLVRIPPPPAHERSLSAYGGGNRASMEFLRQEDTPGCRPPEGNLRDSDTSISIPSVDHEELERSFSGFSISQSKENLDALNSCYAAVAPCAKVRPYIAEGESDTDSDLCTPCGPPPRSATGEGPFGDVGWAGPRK
heteromeric KCNQ2/3 channels, sequence (O43525 whole entry): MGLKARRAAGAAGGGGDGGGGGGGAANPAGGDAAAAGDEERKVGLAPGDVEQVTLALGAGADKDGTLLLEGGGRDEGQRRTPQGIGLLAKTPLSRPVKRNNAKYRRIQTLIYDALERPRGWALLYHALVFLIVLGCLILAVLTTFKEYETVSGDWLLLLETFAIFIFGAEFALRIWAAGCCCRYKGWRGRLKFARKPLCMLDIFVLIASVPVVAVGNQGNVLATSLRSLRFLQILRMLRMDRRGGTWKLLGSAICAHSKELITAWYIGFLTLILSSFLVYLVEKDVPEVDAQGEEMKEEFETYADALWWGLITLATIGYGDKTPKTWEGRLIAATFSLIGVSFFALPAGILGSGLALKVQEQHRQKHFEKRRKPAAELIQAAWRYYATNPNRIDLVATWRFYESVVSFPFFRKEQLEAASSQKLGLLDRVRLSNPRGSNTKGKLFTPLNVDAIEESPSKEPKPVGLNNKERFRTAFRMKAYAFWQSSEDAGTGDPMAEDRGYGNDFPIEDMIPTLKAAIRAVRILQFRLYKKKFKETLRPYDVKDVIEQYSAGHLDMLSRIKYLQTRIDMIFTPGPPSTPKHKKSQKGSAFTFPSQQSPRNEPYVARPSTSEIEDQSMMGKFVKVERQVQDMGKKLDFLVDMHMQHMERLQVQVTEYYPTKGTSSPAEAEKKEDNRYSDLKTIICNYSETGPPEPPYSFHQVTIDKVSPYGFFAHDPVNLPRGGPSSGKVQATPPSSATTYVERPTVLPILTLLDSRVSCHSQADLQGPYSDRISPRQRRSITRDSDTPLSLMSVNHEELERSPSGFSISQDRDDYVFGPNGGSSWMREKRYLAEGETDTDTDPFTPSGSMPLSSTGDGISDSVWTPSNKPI

CC(=O)OCC[N+](C)(C)C [ACh, acetylcholine]
Slope [1]: 4.8 ± 2.7 mV and 3.8 ± 6.5 mV and 5.1 ± 2.5 mV and 5.6 ± 2.7 mV and 5.1 ± 1.9 mV
concentration giving maximal effect [1]: ≥ 1 µM
effect on KCNQ2/3 activity via endogenous mAChRs [1]: inhibited

CC(O)CC(=O)O (stereo not drawn) [BHB, β-hydroxybutyric acid]
BHB sensitivity [2]: BHB-insensitive
Slope ([1]; 1 µM β-Hydrox, Ctrl 6.2 ± 0.8): 5.9 ± 0.4 mV
Normalized tail current V0.5 ([1]; 1 µM β-Hydrox, Ctrl -36.1 ± 1.8): -46.1 ± 0.6 mV
Non-normalized tail current V0.5 ([1]; 1 µM β-Hydrox, Ctrl -36.4 ± 8.7): -43.9 ± 8.2 mV
Slope ([1]; 10 µM β-Hydrox, Ctrl 6.2 ± 0.8): 5.9 ± 0.4 mV
Normalized tail current V0.5 ([1]; 10 µM β-Hydrox, Ctrl -36.1 ± 1.8): -48.1 ± 0.4 mV
Non-normalized tail current V0.5 ([1]; 10 µM β-Hydrox, Ctrl -36.4 ± 8.7): -45.5 ± 7.9 mV
Slope ([1]; 100 µM β-Hydrox, Ctrl 6.2 ± 0.8): 5.9 ± 0.3 mV
Normalized tail current V0.5 ([1]; 100 µM β-Hydrox, Ctrl -36.1 ± 1.8): -50.2 ± 0.3 mV
Non-normalized tail current V0.5 ([1]; 100 µM β-Hydrox, Ctrl -36.4 ± 8.7): -46.0 ± 7.9 mV
Slope ([1]; 1 mM β-Hydrox, Ctrl 6.2 ± 0.8): 5.7 ± 0.6 mV
Normalized tail current V0.5 ([1]; 1 mM β-Hydrox, Ctrl -36.1 ± 1.8): -46.5 ± 0.9 mV
Non-normalized tail current V0.5 ([1]; 1 mM β-Hydrox, Ctrl -36.4 ± 8.7): -46.0 ± 7.4 mV
Slope ([1]; 4 mM β-Hydrox, Ctrl 6.2 ± 0.8): 4.9 ± 0.6 mV
Normalized tail current V0.5 ([1]; 4 mM β-Hydrox, Ctrl -36.1 ± 1.8): -44.9 ± 0.8 mV
Non-normalized tail current V0.5 ([1]; 4 mM β-Hydrox, Ctrl -36.4 ± 8.7): -44.7 ± 7.1 mV
EC50 [1]: 950 ± 130 nM

C[C@H](NC[C@H](O)CP(=O)(O)Cc1ccccc1)c1ccc(Cl)c(Cl)c1 [CGP55845, reference compound]
effect of compound alone on KCNQ2/3 current [1]: neither altered KCNQ2/3 currents alone
Slope ([1]; 100 µM CGP, Ctrl 6.7 ± 0.3): 6.6 ± 0.7 mV
Non-normalized tail current V0.5 ([1]; 100 µM CGP, Ctrl -44.9 ± 3.5): -45.6 ± 3.7 mV
Normalized tail current V0.5 ([1]; 100 µM CGP, Ctrl -45.1 ± 0.3): -47.1 ± 1.1 mV
effect on GABA activation of KCNQ2/3 [1, 10]: nor did it diminish GABA activation of KCNQ2/3

NCC(O)CC(=O)O (stereo not drawn) [GABOB, γ-amino-β-hydroxybutyric acid]
agonist character compared to BHB and GABA [1]: lower efficacy partial agonist
effect on retigabine activation of KCNQ2/3 [1]: reduces the efficacy
Slope ([1]; 0.01 µM GABOB, Ctrl 10.3 ± 1.3): 11.1 ± 1.8 mV
Non-normalized tail current V0.5 ([1]; 0.01 µM GABOB, Ctrl -43.8 ± 3.9): -42.7 ± 5.0 mV
Normalized tail current V0.5 ([1]; 0.01 µM GABOB, Ctrl -44.9 ± 1.5): -42.8 ± 2.0 mV
Slope ([1]; 0.1 µM GABOB, Ctrl 10.3 ± 1.3): 10.6 ± 1.6 mV
Non-normalized tail current V0.5 ([1]; 0.1 µM GABOB, Ctrl -43.8 ± 3.9): -45.8 ± 5.1 mV
Normalized tail current V0.5 ([1]; 0.1 µM GABOB, Ctrl -44.9 ± 1.5): -46.6 ± 1.9 mV
Slope ([1]; 1 µM GABOB, Ctrl 10.3 ± 1.3): 10.1 ± 1.2 mV
Non-normalized tail current V0.5 ([1]; 1 µM GABOB, Ctrl -43.8 ± 3.9): -46.4 ± 4.7 mV
Normalized tail current V0.5 ([1]; 1 µM GABOB, Ctrl -44.9 ± 1.5): -47.1 ± 1.4 mV
Slope ([1]; 10 µM GABOB, Ctrl 10.3 ± 1.3): 9.6 ± 0.9 mV
Non-normalized tail current V0.5 ([1]; 10 µM GABOB, Ctrl -43.8 ± 3.9): -46.8 ± 4.5 mV
Normalized tail current V0.5 ([1]; 10 µM GABOB, Ctrl -44.9 ± 1.5): -48.1 ± 1.2 mV
Slope ([1]; 100 µM GABOB, Ctrl 10.3 ± 1.3): 9.3 ± 0.8 mV
Non-normalized tail current V0.5 ([1]; 100 µM GABOB, Ctrl -43.8 ± 3.9): -46.3 ± 4.2 mV
Normalized tail current V0.5 ([1]; 100 µM GABOB, Ctrl -44.9 ± 1.5): -47.8 ± 0.9 mV
effect on GABA activation of KCNQ2/3 [1, 10]: diminished the KCNQ2/3-activating efficacy of GABA
Slope ([1]; 1 mM GABOB, Ctrl 10.3 ± 1.3): 9.2 ± 0.7 mV
Non-normalized tail current V0.5 ([1]; 1 mM GABOB, Ctrl -43.8 ± 3.9): -46.7 ± 4.0 mV
Normalized tail current V0.5 ([1]; 1 mM GABOB, Ctrl -44.9 ± 1.5): -48.0 ± 0.9 mV
lowering of retigabine efficacy ([1]; at -60 mV): almost fourfold
EC50 [1]: 100 ± 10 nM

Cc1cc(C)c(NC(=O)C2CC3CCC2C3)c(C)c1 (stereo not drawn) [ML-213]
EC50 [3]: 3600 nM

O=C1c2ccccc2C(Cc2ccncc2)(Cc2ccncc2)c2ccccc21 [XE991]
effect on GABA-augmented KCNQ2/3 current ([1]; XE991 50 µM): readily inhibited
inhibition of deactivating current at −60 mV [4]: > 50%
Normalized tail current V0.5 [5, 11]: -4.9 ± 4.3 mV
Slope [5, 11]: 18.4 ± 2.2 mV
effect on GABA-dependent shift of tail currents ([5]; XE991 10 µM): removed the GABA-dependent negative-shift

[3H]C(CN)C([3H])C(=O)O (stereo not drawn) [^3H-GABA]
3H-GABA binding [6]: bound
3H-GABA binding [7]: did not
3H-GABA binding [8]: bound

NCC(CC(=O)O)c1ccc(Cl)cc1 (stereo not drawn) [baclofen, reference compound]
effect of compound alone on KCNQ2/3 current [1]: insensitive
Slope ([1]; 100 µM Baclofen, Ctrl 9.3 ± 0.3): 9.2 ± 0.5 mV
Non-normalized tail current V0.5 ([1]; 100 µM Baclofen, Ctrl -42.6 ± 2.3): -45.4 ± 2.5 mV
Normalized tail current V0.5 ([1]; 100 µM Baclofen, Ctrl -44.2 ± 0.4): -46.4 ± 0.6 mV

NCCc1ccc(O)c(O)c1 [dopamine]
effect of compound alone on KCNQ2/3 current [1]: no effect
Slope ([1]; 100 µM Dopamine, Ctrl 8.4 ± 1.5): 7.2 ± 0.6 mV
Normalized tail current V0.5 ([1]; 100 µM Dopamine, Ctrl -40.8 ± 1.4): -41.9 ± 0.6 mV
Non-normalized tail current V0.5 ([1]; 100 µM Dopamine, Ctrl -41.6 ± 5.3): -41.8 ± 3.6 mV

CCOC(=O)Nc1ccc(NCc2ccc(F)cc2)cc1N [retigabine]
action on GABA receptors [9]: weak activator
EC50 [3]: 11600 nM

NCC(CS(=O)(=O)O)c1ccc(Cl)cc1 (stereo not drawn) [saclofen, reference compound]
effect on GABA activation of KCNQ2/3 [1]: nor did it diminish GABA activation of KCNQ2/3
effect of compound alone on KCNQ2/3 current [1]: neither altered KCNQ2/3 currents alone
Slope ([1]; 100 µM Saclofen, Ctrl 5.6 ± 1.1): 5.5 ± 0.8 mV
Non-normalized tail current V0.5 ([1]; 100 µM Saclofen, Ctrl -41.1 ± 6.7): -42.8 ± 6.6 mV
Normalized tail current V0.5 ([1]; 100 µM Saclofen, Ctrl -42.3 ± 0.8): -42.6 ± 0.8 mV

CCCCC(=O)O [valeric acid, reference compound]
Slope ([1]; 500 µM Valeric acid, Ctrl 9.1 ± 0.5): 8.5 ± 0.6 mV
Normalized tail current V0.5 ([1]; 500 µM Valeric acid, Ctrl -44.2 ± 0.6): -45.1 ± 0.6 mV
Non-normalized tail current V0.5 ([1]; 500 µM Valeric acid, Ctrl -44.5 ± 5.4): -45.6 ± 4.9 mV
Slope ([1]; 500 mM Valeric acid, Ctrl 9.1 ± 0.5): 8.5 ± 0.6 mV
Normalized tail current V0.5 ([1]; 500 mM Valeric acid, Ctrl -44.2 ± 0.6): -45.1 ± 0.6 mV
Non-normalized tail current V0.5 ([1]; 500 mM Valeric acid, Ctrl -44.5 ± 5.4): -45.9 ± 4.9 mV
activity on KCNQ2/3 ([1]; up to 5 mM): inactive; also recorded: no effects

Pertussis toxin
Non-normalized tail current V0.5 [1, 12]: -41.9 ± 6.3 mV
Normalized tail current V0.5 [1, 12]: -40.9 ± 1.4 mV
Slope [1, 12]: 8.8 ± 1.4 mV

picrotoxin
Slope ([5]; 100 µM picrotoxin + 10 µM CGP55845, Ctrl (extracellular solution only) 20.3 ± 4.5): 17.4 ± 3.0 mV
Normalized tail current V0.5 ([5]; 100 µM picrotoxin + 10 µM CGP55845, Ctrl (extracellular solution only) -9.2 ± 4.9): -7.1 ± 7.6 mV
